Assay results published in ChEMBL document CHEMBL4680351, “Antimicrobial and cytotoxic effects of ammonium derivatives of diterpenoids steviol and isosteviol” (Bioorg Med Chem, 2021).
≈ marks a conversion by molar mass, not a printed value. Calls of active or inactive are those of the source. The calls are words filed in the database; no cut-off is given here.

How the values were obtained:
Staphylococcus aureus [1] = test: Antibacterial activity against Staphylococcus aureus MRSA-1 assessed as bacterial growth inhibition in Mueller-Hinton broth 2 measured every 24 hrs for 5 days by serial dilution method; assay type: functional; settings: MRSA-1, 120 h, time 5 day
[2] = Hemolytic activity against human erythrocytes after 1 hr by digital photoelectric colorimetric method; assay type: ADME, cell-based, Erythrocyte
Staphylococcus aureus [3] = test: Bactericidal activity against Staphylococcus aureus 209P measured every 24 hrs for 5 days by serial dilution method; assay type: functional; settings: 120 h, time 5 day
HeLa = test: Cytotoxicity against human HeLa cells assessed as reduction in cell viability by DAPI staining based assay
Staphylococcus aureus [4] = test: Bactericidal activity against Staphylococcus aureus MRSA-2 measured every 24 hrs for 5 days by serial dilution method; assay type: functional; settings: MRSA-2, 120 h, time 5 day
Cell membrane [5] = test: Induction of cytoplasmic membrane damage in Staphylococcus aureus 209P assessed as crystal violet absorption at 3 uM after 30 mins by crystal violet staining based microplate reader analysis (reference value: […] %); assay type: subcellular
[6] = Selectivity index, ratio of IC50 for human WI-38 cells to IC50 for human HepG2 cells; assay type: toxicity; settings: WI-38 cells versus HepG2 cells, read-out: Ratio IC50
Staphylococcus aureus [7] = test: Bacteriostatic activity against Staphylococcus aureus MRSA-2 measured every 24 hrs for 5 days by serial dilution method relative to amoxicillin; assay type: functional; settings: time 5 day
MCF7 [8] = test: Induction of apoptosis in human MCF7 cells assessed as late apoptotic cells at 5 uM after 24 hrs by annexin V-FITC and propidium iodide staining based flow cytometry (reference value: 3.4 %); assay type: functional
MCF7 [9] = test: Induction of apoptosis in human MCF7 cells assessed as activation of caspase-9 at 5 uM after 24 hrs by fluorescence assay relative to control; assay type: functional
Staphylococcus aureus [10] = test: Antibacterial activity against Staphylococcus aureus MRSA-2 assessed as bacterial growth inhibition in Mueller-Hinton broth 2 measured every 24 hrs for 5 days by serial dilution method; assay type: functional; settings: MRSA-2, 120 h, time 5 day
MCF7 [11] = test: Induction of apoptosis in human MCF7 cells assessed as activation of Bcl-2 at 5 uM after 24 hrs by fluorescence assay; assay type: functional, cell-based
T98G = test: Cytotoxicity against human T98G cells assessed as reduction in cell viability by DAPI staining based assay
MCF7 [12] = test: Induction of apoptosis in human MCF7 cells assessed as viable cells at 5 uM after 24 hrs by annexin V-FITC and propidium iodide staining based flow cytometry (reference value: 91.42 %); assay type: functional; settings: read-out: Activity
MCF7 [13] = test: Induction of apoptosis in human MCF7 cells assessed as early apoptotic cells at 10 uM after 24 hrs by annexin V-FITC and propidium iodide staining based flow cytometry (reference value: 5.03 %); assay type: functional
Staphylococcus aureus [14] = test: Induction of morphological changes in Staphylococcus aureus 209P assessed as cell wall damage at 3 uM by TEM analysis; assay type: functional, organism-based
Cell membrane [15] = test: Induction of cytoplasmic membrane damage in Staphylococcus aureus 209P assessed as crystal violet absorption at 1.5 uM after 30 mins by crystal violet staining based microplate reader analysis (reference value: […] %); assay type: subcellular
Staphylococcus aureus [16] = test: Induction of morphological changes in Staphylococcus aureus 209P assessed as cytoplasmic disintegration at 3 uM by TEM analysis; assay type: functional, organism-based
MCF7 [17] = test: Induction of apoptosis in human MCF7 cells assessed as early apoptotic cells at 5 uM after 24 hrs by annexin V-FITC and propidium iodide staining based flow cytometry (reference value: 5.03 %); assay type: functional
Staphylococcus aureus [18] = test: Induction of morphological changes in Staphylococcus aureus 209P assessed as change in cytoplasmic content at 3 uM by TEM analysis; assay type: functional, organism-based
[19] = Selectivity index, ratio of IC50 for human WI-38 cells to IC50 for human MCF7 cells; assay type: toxicity; settings: WI-38 cells versus MCF7 cells, read-out: Ratio IC50
Staphylococcus aureus [20] = test: Bacteriostatic activity against Staphylococcus aureus MRSA-2 measured every 24 hrs for 5 days by serial dilution method; assay type: functional, organism-based; settings: time 5.0 day
MCF7 [21] = test: Induction of apoptosis in human MCF7 cells assessed as activation of JNK at 5 uM after 24 hrs by fluorescence assay; assay type: functional, cell-based
MCF7 [22] = test: Induction of apoptosis in human MCF7 cells assessed as dead cells at 10 uM after 24 hrs by annexin V-FITC and propidium iodide staining based flow cytometry (reference value: 0.15 %); assay type: functional
Staphylococcus aureus [23] = test: Antibacterial activity against Staphylococcus aureus 209P assessed as bacterial growth inhibition; assay type: functional
[24] = Selectivity index, ratio of IC50 for human WI-38 cells to IC50 for human HeLa cells; assay type: toxicity; settings: WI-38 cells versus HeLa cells, read-out: Ratio IC50
MCF7 [25] = test: Induction of apoptosis in human MCF7 cells assessed as viable cells at 10 uM after 24 hrs by annexin V-FITC and propidium iodide staining based flow cytometry (reference value: 91.42 %); assay type: functional; settings: read-out: Activity
MCF7 [26] = test: Induction of apoptosis in human MCF7 cells assessed as activation of Bad at 5 uM after 24 hrs by fluorescence assay; assay type: functional, cell-based
WI-38 = test: Cytotoxicity against human WI-38 cells assessed as reduction in cell viability by DAPI staining based assay
[27] = Selectivity index, ratio of IC50 for human WI-38 cells to IC50 for human T98G cells; assay type: toxicity; settings: WI-38 cells versus T98G cells, read-out: Ratio IC50
Cell membrane [28] = test: Induction of cytoplasmic membrane damage in Staphylococcus aureus 209P assessed as crystal violet absorption at 6 uM after 30 mins by crystal violet staining based microplate reader analysis (reference value: […] %); assay type: subcellular
Staphylococcus aureus [29] = test: Bactericidal activity against Staphylococcus aureus MRSA-1 measured every 24 hrs for 5 days by serial dilution method; assay type: functional; settings: MRSA-1, 120 h, time 5 day
Staphylococcus aureus [30] = test: Bacteriostatic activity against Staphylococcus aureus MRSA-1 measured every 24 hrs for 5 days by serial dilution method; assay type: functional, organism-based
MCF7 [31] = test: Induction of mitochondrial membrane potential loss in human MCF7 cells assessed as cell population with mitochondrial membrane potential collapse at 10 uM after 24 hrs by JC-10 staining-based flow cytometric analysis (reference value: 1.05 %); assay type: functional
MCF7 [32] = test: Induction of apoptosis in human MCF7 cells assessed as dead cells at 5 uM after 24 hrs by annexin V-FITC and propidium iodide staining based flow cytometry (reference value: 0.15 %); assay type: functional
MCF7 [33] = test: Induction of mitochondrial membrane potential loss in human MCF7 cells assessed as cell population with intact mitochondrial membrane potential at 10 uM after 24 hrs by JC-10 staining-based flow cytometric analysis (reference value: 98.73 %); assay type: functional
[34] = Selectivity index, ratio of IC50 for human WI-38 cells to IC50 for human A549 cells; assay type: toxicity; settings: WI-38 cells versus A549 cells, read-out: Ratio IC50
MCF7 [35] = test: Cytotoxicity against human MCF7 cells assessed as reduction in cell viability by DAPI staining based assay; assay type: functional
MCF7 [36] = test: Induction of apoptosis in human MCF7 cells assessed as activation of Akt at 5 uM after 24 hrs by fluorescence assay; assay type: functional, cell-based
Staphylococcus aureus [37] = test: Induction of morphological changes in Staphylococcus aureus 209P assessed as cell lysis at 3 uM by TEM analysis; assay type: functional, organism-based
MCF7 [38] = test: Induction of apoptosis in human MCF7 cells assessed as activation of caspase-8 at 5 uM after 24 hrs by fluorescence assay; assay type: functional, cell-based
MCF7 [39] = test: Induction of mitochondrial membrane potential loss in human MCF7 cells assessed as cell population with intact mitochondrial membrane potential at 5 uM after 24 hrs by JC-10 staining-based flow cytometric analysis (reference value: 98.73 %); assay type: functional
MCF7 [40] = test: Induction of mitochondrial membrane potential loss in human MCF7 cells assessed as cell population with mitochondrial membrane potential collapse at 5 uM after 24 hrs by JC-10 staining-based flow cytometric analysis (reference value: 1.05 %); assay type: functional
PC-3 = test: Cytotoxicity against human PC-3 cells assessed as reduction in cell viability by DAPI staining based assay
MCF7 [41] = test: Induction of apoptosis in human MCF7 cells assessed as late apoptotic cells at 10 uM after 24 hrs by annexin V-FITC and propidium iodide staining based flow cytometry (reference value: 3.4 %); assay type: functional
Cell membrane [42] = test: Induction of cytoplasmic membrane damage in Staphylococcus aureus 209P assessed as crystal violet absorption at 0.7 uM after 30 mins by crystal violet staining based microplate reader analysis (reference value: […] %); assay type: subcellular
MCF7 [43] = test: Induction of apoptosis in human MCF7 cells assessed as activation of p53 at 5 uM after 24 hrs by fluorescence assay; assay type: functional, cell-based
[44] = Selectivity index, ratio of IC50 for human WI-38 cells to IC50 for human PC-3 cells; assay type: toxicity; settings: WI-38 cells versus PC-3 cells, read-out: Ratio IC50
A549 = test: Cytotoxicity against human A549 cells assessed as reduction in cell viability by DAPI staining based assay
HepG2 = test: Cytotoxicity against human HepG2 cells assessed as reduction in cell viability by DAPI staining based assay
Staphylococcus aureus [45] = test: Antibacterial activity against Staphylococcus aureus 209P assessed as bacterial growth inhibition in Mueller-Hinton broth 2 measured every 24 hrs for 5 days by serial dilution method; assay type: functional; settings: 120 h, time 5 day

Q: Which results are given for `C[C@@]12CC[C@@H]3[C@@](CC[C@H]4[C@@]3(C)CCC[C@@]4(C)C(=O)OCC[N+](C)(C)CCCCCCCCCCCC[N+](C)(C)CCOC(=O)[C@]3(C)CCC[C@@]4(C)[C@@H]5CC[C@@]6(C)C[C@]5(CC[C@@H]43)CC6=O)(CC1=O)C2.[Br-].[Br-]`?
A: MIC (Staphylococcus aureus [1]): 2.8 µM; HC50 at 1 h [2]: 20.3 µM; MBC (Staphylococcus aureus [3]): 0.7 µM; IC50 (HeLa): 22 µM; MBC (Staphylococcus aureus [4]): 1.4 µM; Activity (Cell membrane [5]): 24%; selectivity ratio [6]: 1.3; fold change (FC) (Staphylococcus aureus [7]): 15; Activity (MCF7 [8]): 25.95%; fold change (FC) (MCF7 [9]): >=2; MIC (Staphylococcus aureus [10]): 1.4 µM; Activity (MCF7 [11]): inactive; IC50 (T98G): 39.6 µM; viability at 5 µM (MCF7 [12]): 29.9%; Activity (MCF7 [13]): 41.39%; Activity (Staphylococcus aureus [14]): Active; Activity (Cell membrane [15]): 13%; Activity (Staphylococcus aureus [16]): Active; Activity (MCF7 [17]): 27.59%; Activity (Staphylococcus aureus [18]): Active; selectivity ratio [19]: 5; Activity (Staphylococcus aureus [20]): Active; Activity (MCF7 [21]): Active; Activity (MCF7 [22]): 5.24%; MIC (Staphylococcus aureus [23]): 0.7 µM; selectivity ratio [24]: 1.1; viability at 10 µM (MCF7 [25]): 24.9%; Activity (MCF7 [26]): Active; IC50 (WI-38): 25 µM; selectivity ratio [27]: 0.6; Activity (Cell membrane [28]): 63%; MBC (Staphylococcus aureus [29]): 2.8 µM; Activity (Staphylococcus aureus [30]): Active; Activity (MCF7 [31]): 92.1%; Activity (MCF7 [32]): 16.61%; Activity (MCF7 [33]): 7.76%; selectivity ratio [34]: 2; IC50 (MCF7 [35]): 5 µM; Activity (MCF7 [36]): Active; Activity (Staphylococcus aureus [37]): Active; Activity (MCF7 [38]): inactive; Activity (MCF7 [39]): 88.28%; Activity (MCF7 [40]): 11.65%; IC50 (PC-3): 13 µM; Activity (MCF7 [41]): 28.47%; Activity (Cell membrane [42]): 7%; Activity (MCF7 [43]): Active; selectivity ratio [44]: 1.9; IC50 (A549): 12.5 µM; IC50 (HepG2): 19.5 µM

Q: Which MIC (Staphylococcus aureus [1]) does the source give for `O=C(O)c1cn(C2CC2)c2cc(N3CCNCC3)c(F)cc2c1=O` [CIPROFLOXACIN] here?
A: 377 µM (≈ 125 µg/mL)

Q: And the MBC (Staphylococcus aureus [3])?
A: 1.5 µM (≈ 0.497 µg/mL)

Q: What about the MBC (Staphylococcus aureus [4]) of the same compound?
A: 2.7 µM (≈ 0.895 µg/mL)

Q: What about the MIC (Staphylococcus aureus [10]) of the same compound?
A: 2.7 µM (≈ 0.895 µg/mL)

Q: What about the MIC (Staphylococcus aureus [45]) of the same compound?
A: 1.5 µM (≈ 0.497 µg/mL)

Q: What about the MBC (Staphylococcus aureus [29]) of the same compound?
A: 755 µM (≈ 250 µg/mL)

Q: For `C[C@@]12CC[C@@H]3[C@@](CC[C@H]4[C@@]3(C)CCC[C@@]4(C)C(=O)OCC[N+](C)(C)Cc3ccccc3)(CC1=O)C2`, which MIC (Staphylococcus aureus [1]) is on record?
A: 223 µM

Q: And the HC50 at 1 h [2]?
A: > 100 µM

Q: What about the MBC (Staphylococcus aureus [3]) of the same compound?
A: 55.8 µM

Q: What about the IC50 (HeLa) of the same compound?
A: > 100 µM

Q: And the MBC (Staphylococcus aureus [4])?
A: 112 µM

Q: And the MIC (Staphylococcus aureus [10])?
A: 112 µM

Q: And the IC50 (T98G)?
A: > 100 µM

Q: What about the MIC (Staphylococcus aureus [23]) of the same compound?
A: 55.8 µM

Q: What about the IC50 (WI-38) of the same compound?
A: > 100 µM

Q: What about the MBC (Staphylococcus aureus [29]) of the same compound?
A: 223 µM

Q: What about the IC50 (MCF7 [35]) of the same compound?
A: > 100 µM

Q: What about the IC50 (PC-3) of the same compound?
A: > 100 µM

Q: What about the IC50 (A549) of the same compound?
A: > 100 µM

Q: And the IC50 (HepG2)?
A: > 100 µM
